Reference: US20030199530A1, “New compounds derived from quinazoline” (priority 2002, published 2003)

What was measured:
FTase = target: T1, FTase (Rattus norvegicus, UniProt Q02293+Q04631); assay: FTase enzyme test (scintillation proximity assay); format: biochemical; settings: rat brain FTase, biotinylated lamin B peptide, [3H]farnesyl pyrophosphate, 37° C., one hour; read-out: IC50 with respect to FTase
T1 construct: The two enzymes FTase and GGTase-I were purified starting from rat's brain; from tissue; host or cells: rat brain
Description: The two enzymes FTase and GGTase-I were purified starting from rat's brain. After grinding and centrifuging, the supernatant is precipitated with 30% ammonium sulphate and the resulting supernatant is subjected to another precipitation with 50% ammonium sulphate. The pellet is then passed through a column of phenyl agarose and the fractions collected after elution with sodium chloride are evaluated for their enzyme content in accordance with the “scintillation proximity assay” method described hereinbelow. The fractions corresponding to one or other of the two enzymes are then combined and frozen at −80° C. until use.
The determination of the enzymatic activity of the FTase is carried out in 96-well plates by a radioactive scintillation proximity assay method. The acceptor substrate composed of the carboxy terminal sequence of lamin B (YRASNRSCAIM) coupled to biotin is incubated in the presence of the radiolabelled donor substrate ([^3H]farnesyl pyrophosphate), and of various concentrations of test compounds in dimethyl sulphoxide (DMSO). The reaction is initiated at 37° C. by adding FTase enzyme for a duration of one hour, and is then stopped with an appropriate buffer containing a suspension of beads impregnated with scintillant. […]

[1] = system: cells transfected with v-H-ras; assay: Cell proliferation test (MTT) on RAT2 fibroblasts transfected with v-H-ras; format: cell-based; settings: Rattus norvegicus, 96 h, RAT2 transfectant, 10% serum, four days, read-out: IC50 of inhibition of growth of cells transfected by the oncogene v-H-ras
Description: a) The RAT2 line of rat fibroblasts and an appropriate transfectant for the insertion of the gene v-H-ras were used to test the effectiveness of the claimed products on cells.
The parental and transfected cells are cultured in 96-well plates for cell culture in the presence of medium containing 10% serum. Twenty four hours later, the test products are added to the same medium over a period of four days and the final quantity of cells is estimated indirectly by the cell viability method using 3-(4,5-dimethylthiazol-2-yl)-2,5-diphenyltetrazolium bromide (MTT).

IC50 (FTase): 19 nM
Structure (SMILES): CC(C)(C)OC(=O)Nc1ccc(-n2c(=O)c3ccccc3n(CC(Cc3ccccc3)Cn3ccnc3)c2=O)cc1 (centres unmarked) [Example 2, tert-Butyl 4-(1-[2-benzyl-3-(1H-imidazol-1-yl)propyl]-2,4-dioxo-1,4-dihydro-3(2H)-quinazolinyl)phenylcarbamate]
IC50 [1]: 9 nM
